According to patent publication US10363239B2, “Method for inhibiting growth of cancer cells” (Pain Therapeutics, Inc., priority 2013, dated 2019):
Read-outs that look alike come from different tables or passages of the source.

Experiments:
mu opiate receptor (MOR) = assay: MOR agonist activity using [35S]GTPγS binding assay in striatal membranes; assay type: biochemical; conditions: for MOR agonist activity ([35S]GTPγS binding), FLNA-Binding Compound as Agonist 1 μM + BFNA: 1 μM compound + 1 μM β-funaltrexamine
Outline: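 Striatal membranes (200 μg) were preincubated 5 min at 30 °C in HEPES pH 7.5 with 100 mM NaCl, 1 mM MgCl2 and 0.5 nM [35S]GTPγS, then 5 min more with 0.1–10 μM compound. Gαo was immunoprecipitated and bound radioactivity counted by scintillation.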

[1] = biological target: FLNA pentapeptide of SEQ ID NO: 1 (Bn-VAKGL) (Homo sapiens, UniProt P21333); assay: FITC-NLX-based FLNA screening assay (inhibition of FITC-naloxone binding to Bn-VAKGL on streptavidin plates); conditions: 10 nM FITC-NLX
[2] = Series C-1, 0.1 μM compound, relative to DAMGO
[3] = Series C-1, 0.1 μM compound, [35S]GTPγS binding to Gαo, striatal membranes
[4] = Series C-1, 1 μM compound + 1 μM β-FNA
[5] = Series C-1, 1 μM compound + β-FNA, relative to DAMGO + BFNA
[6] = Series C-1, 1 μM compound, relative to DAMGO
[7] = Series C-1, 1 μM compound, [35S]GTPγS binding to Gαo, striatal membranes
[8] = read-out: Percent Binding Inhibition, FLNA-binding compound 0.01 μM
[9] = read-out: Percent Binding Inhibition, FLNA-binding compound 0.1 μM
[10] = read-out: Percent Binding Inhibition, FLNA-binding compound 1 μM
[11] = 0.1 μM compound relative to DAMGO
[12] = 1 μM compound + BFNA relative to DAMGO + BFNA
[13] = 1 μM compound relative to DAMGO
[14] = FLNA-binding compound 0.01 μM, read-out: Percent Binding Inhibition
[15] = FLNA-binding compound 0.1 μM, read-out: Percent Binding Inhibition
[16] = FLNA-binding compound 1 μM, read-out: Percent Binding Inhibition

| SMILES | % DAMGO (0.1 μM) (mu opiate receptor (MOR); [2]) | Concentration of FLNA-Binding Compound as Agonist 0.1 μM (mu opiate receptor (MOR); [3]) | Concentration of FLNA-Binding Compound as Agonist 1 μM + BFNA (mu opiate receptor (MOR); [4]) | % DAMGO + BFNA (mu opiate receptor (MOR); [5]) | % DAMGO (1 μM) (mu opiate receptor (MOR); [6]) | Concentration of FLNA-Binding Compound as Agonist 1 μM (mu opiate receptor (MOR); [7]) | inhibition at 0.01 µM [1, 8] | inhibition at 0.1 µM [1, 9] | inhibition at 1 µM [1, 10] | other results |
| --- | --- | --- | --- | --- | --- | --- | --- | --- | --- | --- |
| O=C(c1ccc([N+](=O)[O-])cc1)N1CCC2(CC1)OCCN2S(=O)(=O)c1ccc([N+](=O)[O-])cc1 [Compound C0022] | 113.5% | 194.3% | 13.4% | 25.7% | 123.2% | 328.7% | 34.5% | 37.6% | 43.9% |  |
| CC1CCC(C(C)C)C(OCC(O)CN2CCCCC2C)C1 (stereo not drawn) [Compound A0007] |  |  |  |  |  |  | 39.2% | 46.2% | 52.9% | MOR agonist activity ([35S]GTPγS binding), FLNA-Binding Compound as Agonist 0.1 μM (mu opiate receptor (MOR); 0.1 μM compound): 102.0%; % DAMGO (0.1 μM) (mu opiate receptor (MOR); [11]): 68.3%; MOR agonist activity ([35S]GTPγS binding), FLNA-Binding Compound as Agonist 1 μM (mu opiate receptor (MOR); 1 μM compound): 221.9%; MOR agonist activity ([35S]GTPγS binding), FLNA-Binding Compound as Agonist 1 μM + BFNA (mu opiate receptor (MOR)): 40.4%; % DAMGO + BFNA (mu opiate receptor (MOR); [12]): 152.5%; % DAMGO (1 μM) (mu opiate receptor (MOR); [13]): 96.4% |
| O=C(O)c1ccc(C(=O)N2CCC3(CC2)OCCN3S(=O)(=O)c2ccc(C(=O)O)cc2)cc1 [Compound C0021] | 94.5% | 159.7% | 90.7% | 546.4% | 87.8% | 192.0% |  |  |  | inhibition at 0.01 µM [1, 14]: 34%; inhibition at 0.1 µM [1, 15]: 38.4%; inhibition at 1 µM [1, 16]: 40.6% |
| O=S(=O)(c1csc2ccccc12)N1CCC2(CC1)OCCN2S(=O)(=O)c1csc2ccccc12 [Compound C0150M] | 97.2% | 167.1% | 93.4% | 173.2% | 129.8% | 423.1% | 47.3% | 51.8% | 61.4% |  |
| COc1c2c(cc3c1C(CC(=O)c1ccncc1)[N+](C)(C)CC3)OCO2 (stereo not drawn) [Compound B0005] |  |  |  |  |  |  | 31.8% | 34.8% | 41.7% | % DAMGO (0.1 μM) (mu opiate receptor (MOR); Series B, 0.1 μM compound, relative to DAMGO): 50.5%; MOR agonist activity, percent [35S]GTPγS binding at the stated compound concentration (mu opiate receptor (MOR); Series B, 0.1 μM compound, [35S]GTPγS binding to Gαo, striatal membranes): 89.2%; MOR agonist activity, percent [35S]GTPγS binding at the stated compound concentration (mu opiate receptor (MOR); Series B, 1 μM compound + 1 μM β-FNA): 45.1%; % DAMGO + BFNA (mu opiate receptor (MOR); Series B, 1 μM compound + β-FNA, relative to DAMGO + BFNA): 68.6%; % DAMGO (1 μM) (mu opiate receptor (MOR); Series B, 1 μM compound, relative to DAMGO): 42.6%; MOR agonist activity, percent [35S]GTPγS binding at the stated compound concentration (mu opiate receptor (MOR); Series B, 1 μM compound, [35S]GTPγS binding to Gαo, striatal membranes): 110.4% |
| O=S(=O)(c1ccc(C(F)(F)F)cc1)N1CCC2(CC1)OCCN2S(=O)(=O)c1ccc(C(F)(F)F)cc1 [Compound C0012] | 54.8% | 96.8% | 184.4% | 280.7% | 86.7% | 224.8% | 26.3% | 39.5% | 46.4% |  |
| CC1CCC(C(C)C)C(OCC(O)CN2CCCC2=O)C1 (stereo not drawn) [Compound A0035] |  |  |  |  |  |  |  |  |  | MOR agonist activity ([35S]GTPγS binding), FLNA-Binding Compound as Agonist 0.1 μM (mu opiate receptor (MOR); 0.1 μM compound): 120.6%; % DAMGO (0.1 μM) (mu opiate receptor (MOR); [11]): 61.5%; MOR agonist activity ([35S]GTPγS binding), FLNA-Binding Compound as Agonist 1 μM (mu opiate receptor (MOR); 1 μM compound): 158.8%; MOR agonist activity ([35S]GTPγS binding), FLNA-Binding Compound as Agonist 1 μM + BFNA (mu opiate receptor (MOR)): 88.6%; % DAMGO + BFNA (mu opiate receptor (MOR); [12]): 119.9%; % DAMGO (1 μM) (mu opiate receptor (MOR); [13]): 57.5%; inhibition at 0.01 µM [1, 14]: 40.3%; inhibition at 0.1 µM [1, 15]: 45.5%; inhibition at 1 µM [1, 16]: 54.9% |
